The values below come from patent US6291467A, “Heteroaromatic derivatives” (priority 2000, dated 2001).

One series addresses Dopamine D2 Receptor (Rattus norvegicus, UniProt P61169). Kind of series: Dopamine D2 Receptor Binding Assay (displacement of [^3 H]raclopride). The conditions noted are these: rat striatum membrane, [^3 H]raclopride (1 nM), 25° C., an hour. The protocol: 2. Dopamine D2 Receptor Binding Assay
Rat striatum membrane was used as a receptor preparation.
[^3 H]raclopride was used as [^3 H]-labeled ligand.
A binding reaction using the [^3 H]-labeled ligand was carried out according to the following method as described in Mol. J. Pharmacol., 43, 749(1993).
Preparation of Receptor Preparation: Rat striatum was homogenized in 50 mM Tris-hydrochloric acid buffer (pH 7.4), centrifuged at 48,000×g, and the precipitate was washed once with a Tris-hydrochloric acid buffer. The precipitate was suspended in 50 mM Tris-hydrochloric acid buffer (pH 7.4) containing 120 mM NaCl, 1.5 mM KCl, 2 mM CaCl2 and 1 mM MgCl2 to give a membrane preparation.
Dopamine D2 Receptor Binding Assay: The membrane preparation (0.5 mg of protein/ml), [^3 H]raclopride (1 nM) and each test drug were reacted at 25° C. for an hour.
After completion of the reaction, the reaction solution was filtered by suction through a glass filter (GF/B), and the radioactivity on the filter was determined by a liquid scintillation spectrometer.
The binding under the reaction in the presence of 10 μM haloperidol was defined as non-specific binding of [^3 H]raclopride, and the difference between total binding and non-specific binding was defined as specific binding.

The next series concerns the target T1, human D4.2 receptor (Homo sapiens, UniProt P21917, DEL265-296).
T1 sequence (P21917 with tags, fused parts or gaps DEL265-296): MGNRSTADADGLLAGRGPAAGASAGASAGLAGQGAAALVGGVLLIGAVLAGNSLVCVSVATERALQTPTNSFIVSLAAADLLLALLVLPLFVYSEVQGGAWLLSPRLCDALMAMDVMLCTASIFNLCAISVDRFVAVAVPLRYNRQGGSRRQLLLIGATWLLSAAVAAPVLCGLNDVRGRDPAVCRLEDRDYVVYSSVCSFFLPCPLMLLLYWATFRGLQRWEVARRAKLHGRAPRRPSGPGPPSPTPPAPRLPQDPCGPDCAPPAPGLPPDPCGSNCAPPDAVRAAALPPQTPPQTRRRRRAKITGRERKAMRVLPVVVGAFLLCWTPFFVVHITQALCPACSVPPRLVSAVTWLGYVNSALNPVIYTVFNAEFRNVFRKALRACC
Put plainly: Dopamine D4 Receptor Binding Assay (displacement of [^3 H]spiperone). The conditions noted are these: human D4.2 in CHO cell membranes, pH 7.4, 27° C., 2 hours. How it is done:
1. Dopamine D4 Receptor Binding Assay
Chinese hamster ovarium (CHO) cell membranes wherein human D4.2 receptor was expressed were used as a receptor preparation.
[^3 H]spiperone was used as [^3 H]-labeled ligand.
A binding reaction using the [^3 H]-labeled ligand was carried out according to the following method as described in Eur. J. Pharmacol., 233, 173(1993).
Dopamine D4.2 Receptor Binding Assay: The CHO cell membranes wherein human D4.2 receptor was expressed, [^3 H]spiperone ([…]) and each test drug were reacted in 50 mM Tris-hydrochloric acid buffer (pH 7.4) containing 5 mM EDTA, 1.5 mM CaCl2, 5 mM KCl and 120 mM NaCl at 27° C. for 2 hours.
After completion of the reaction, the reaction solution was filtered by suction through a glass filter (GF/B), and the radioactivity on the filter was measured by a liquid scintillation spectrometer.
The binding under the reaction in the presence of 10 μM haloperidol was defined as non-specific binding of [^3 H]spiperone, and the difference between the total binding and the non-specific binding was defined as specific binding.

The test system of a further series is dopamine D4 receptors. The conditions noted are these: Nature, 350, 610-614 (1991); cited from earlier work.
The conditions of series [1]: Summary and Clinical Data, Sandoz, Canada Inc. (1990); cited from earlier work.
Series [2] relates to drug-resistant schizophrenia and negativism. The conditions noted are these: clinical investigation, Arch. Gen. Psych., 45, 789-796 (1988); cited from earlier work.

Structures are written as SMILES. Structures can show the parent of a compound that is named as a salt. Bounds are passed on as bounds.

By IC50 is commonly meant the concentration that gives 50% inhibition. A lower IC50 goes with greater potency.

Sequence of Dopamine D2 Receptor (P61169 whole entry): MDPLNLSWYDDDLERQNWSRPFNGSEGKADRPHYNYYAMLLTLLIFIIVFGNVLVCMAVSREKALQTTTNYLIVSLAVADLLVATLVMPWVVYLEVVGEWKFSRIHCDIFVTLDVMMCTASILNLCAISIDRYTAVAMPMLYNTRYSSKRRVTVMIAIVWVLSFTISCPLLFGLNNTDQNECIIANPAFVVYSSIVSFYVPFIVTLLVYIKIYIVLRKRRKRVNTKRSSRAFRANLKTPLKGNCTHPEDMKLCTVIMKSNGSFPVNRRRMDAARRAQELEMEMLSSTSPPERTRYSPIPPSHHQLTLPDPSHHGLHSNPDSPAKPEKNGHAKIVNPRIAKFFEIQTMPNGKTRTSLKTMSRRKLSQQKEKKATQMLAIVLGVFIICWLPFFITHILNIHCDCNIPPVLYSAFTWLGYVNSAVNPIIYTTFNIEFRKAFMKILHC

As to `Fc1ccc(-c2ncncc2CCN2CCC(=Cc3ccccc3F)CC2)cc1` [Compound A-12, 4-(4-fluorophenyl)-5-[2-[4-(2-fluorobenzylidene)piperidin-1-yl]ethyl]pyrimidine dihydrochloride], the IC50 amounted to 359 nM at Dopamine D2 Receptor and 2.15 nM on human D4.2 receptor.
Taken in the same sequence, the figures for `Oc1nc(-c2ccc(F)cc2)c(CCN2CCC(=Cc3cccc(F)c3)CC2)s1` [Compound A-10, 2-hydroxy-4-(4-fluorophenyl)-5-[2-[4-(3-fluorobenzylidene)piperidin-1-yl]ethyl]thiazole] were 73.9 nM and 1.96 nM.
`Fc1ccc(-c2[nH]ncc2CCN2CCC(=Cc3cccc(F)c3)CC2)cc1` [Compound A-02]: the IC50 at Dopamine D2 Receptor worked out at 32 nM; on human D4.2 receptor it was 1.12 nM.
Taken in the same sequence, the figures for `Fc1ccc(C=C2CCN(CCc3cn[nH]c3-c3ccc(F)cc3)CC2)cc1` [Compound A-01] were 152 nM and 1.23 nM.
The corresponding values for `Fc1ccc(-c2nc(S)ncc2CCN2CCC(=Cc3ccccc3F)CC2)cc1` [Compound A-13, 4-(4-fluorophenyl)-5-[2-[4-(2-fluorobenzylidene)piperidin-1-yl]ethyl]-2-mercaptopyrimidine] are > 1000 nM and 1.35 nM.
Turning to `Cc1ccc(-c2[nH]ncc2CCN2CCC(=Cc3ccc(F)cc3)CC2)cc1` [Compound A-04], the 50% inhibitory concentration (IC50) at Dopamine D2 Receptor worked out at 55.9 nM; on human D4.2 receptor, 1.96 nM.
Taken in the same sequence, the figures for `Fc1ccc(-c2[nH]ncc2CCN2CCC(=Cc3ccccc3F)CC2)cc1` [Compound A-03, 5-(4-fluorophenyl)-4-[2-[4-(2-fluorobenzylidene)piperidin-1-yl]ethyl]pyrazole oxalate] were 26.6 nM and 0.85 nM.
Taken in the same sequence, the figures for `CSc1nc(-c2ccc(F)cc2)c(CCN2CCC(=Cc3cccc(F)c3)CC2)[nH]1` [Compound A-08] were 61.4 nM and 1.12 nM.
As to `CN1CCN(C2=Nc3cc(Cl)ccc3Nc3ccccc32)CC1` [clozapine], the “affinity for dopamine D4 receptors relative to dopamine D2 receptors” value with dopamine D4 receptors was “higher than that for dopamine D2 receptors”. Further, in series [1], the “blood disorder (agranulocytosis)” value is “serious defect of causing blood disorder called agranulocytosis” and the death from agranulocytosis entry was “cases of death therefrom have been reported”. Besides, in series [2], the “effect on drug-resistant schizophrenia and negativism” value was “effective on drug-resistant schizophrenia and negativism”; the extrapyramidal diseases result is “hardly causes extrapyramidal diseases”.
Regarding `O=C(c1ccc(F)cc1)C1CCN(CCc2sc(O)nc2-c2ccc(F)cc2)CC1` [Compound A-09], the IC50 on Dopamine D2 Receptor turned out to be 107 nM; on human D4.2 receptor, 2.85 nM.
The corresponding values for `Nc1ncc(CCN2CCC(=Cc3ccccc3F)CC2)c(-c2ccc(F)cc2)n1` [Compound A-16] are 129 nM and 1.96 nM.
The corresponding values for `Cc1ccc(C=C2CCN(CCc3cn[nH]c3-c3ccc(F)cc3)CC2)cc1` [Compound A-06] are 171 nM and 2.85 nM.
